Data published in patent EP4775582A1, “MACROCYCLIC COMPOUND AND ANTIBODY-DRUG CONJUGATE THEREOF” (Genfleet Therapeutics (Shanghai) Inc., priority 2023, dated 2025).
pIC50: −log10 of the molar value. Read-outs that look alike come from different tables or passages of the source.

Columns and labels:
KRAS G12V-cRAF = KRAS G12V-cRAF (Homo sapiens, UniProt P01116+P62937, G12V); assay: Assay for binding of KRAS to cRAF (HTRF, with Cyclophilin A), KRAS G12V; settings: for pIC50: read-out: KRAS G12V-cRAF binding assay, GPPNP-KRAS G12V, IC50 values; for IC50: KRAS G12V-cRAF binding assay(nM), GPPNP-KRAS G12V, IC50 values
KRAS G12V-cRAF, sequence (P01116 1-188 isoform P01116-2 G12V): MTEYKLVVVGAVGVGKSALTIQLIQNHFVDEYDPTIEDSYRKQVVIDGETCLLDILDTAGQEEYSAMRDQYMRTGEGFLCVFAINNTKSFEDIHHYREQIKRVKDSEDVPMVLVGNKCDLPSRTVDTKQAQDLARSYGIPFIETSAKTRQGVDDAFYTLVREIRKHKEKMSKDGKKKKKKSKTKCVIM
KRAS G12V-cRAF, sequence (P62937 whole entry): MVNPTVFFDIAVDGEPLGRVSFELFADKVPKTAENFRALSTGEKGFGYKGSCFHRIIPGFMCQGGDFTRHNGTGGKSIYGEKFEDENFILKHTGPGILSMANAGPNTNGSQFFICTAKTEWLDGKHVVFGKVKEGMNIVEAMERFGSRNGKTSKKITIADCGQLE
Experimental: (§3) The plate was centrifuged at 1000 rpm for 1 min and then incubated in the thermostatic incubator at 20 °C for 30 min. […] The plate was centrifuged at 1000 rpm for 1 min and then incubated in the thermostatic incubator at 20 °C for 60 min. […] The working solution was added to the aforementioned assay plate at 5 µL/well. The plate was centrifuged at 1000 rpm for 1 min and then incubated in the thermostatic incubator at 20 °C for 60 min.

KRAS WT-cRAF = KRAS WT-cRAF (Homo sapiens, UniProt P01116+P62937); assay: Assay for binding of KRAS to cRAF (HTRF, with Cyclophilin A), KRAS WT; settings: for pIC50: read-out: KRAS WT-cRAF binding assay, GPPNP-KRAS WT, IC50 values; for IC50: KRAS WT-cRAF binding assay(nM), GPPNP-KRAS WT, IC50 values
KRAS WT-cRAF, sequence (P01116 1-188 isoform P01116-2): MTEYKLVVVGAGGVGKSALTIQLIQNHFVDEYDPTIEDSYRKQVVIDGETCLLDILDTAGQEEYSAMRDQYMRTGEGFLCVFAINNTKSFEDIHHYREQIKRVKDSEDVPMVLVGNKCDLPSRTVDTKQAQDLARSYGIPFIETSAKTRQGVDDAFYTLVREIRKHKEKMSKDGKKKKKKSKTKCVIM
KRAS WT-cRAF, sequence (P62937 whole entry): as the sequence (P62937 whole entry) above
Experimental: as §3

NCI-H441 cells = assay: 3D cell proliferation assay (CellTiter Glo-3D), NCI-H441; format: cell-based, human; settings: NCI-H441 cells (KRAS G12V), 2% FBS, 5 days, read-out: H441 AP IC50
Experimental: (§1) The cells were digested with trypsin (containing EDTA), collected in their respective low-serum complete media containing 2% FBS (for MIA Paca-2 cell culture: DMEM + 2% FBS + 0.5% Horse serum + 1% PS), and counted. After the cell density was adjusted as required, 200 MIA PaCa-2 cells, 800 AsPC-1 cells, 800 NCI-H441 cells, or 400 NCI-H1975 cells per well were seeded into a 384-well cell culture plate, with the volume of the medium in each well being 45 µL. The cell culture plate was incubated in an incubator at 37 °C with 5% CO2 overnight. […] On the day after cell seeding, 5 µL of the 10× compound stock solution was added to each cell culture well. […] In addition to the compound-treated wells described above, cell-containing DMSO control wells (with 5 µL of the complete medium containing 1% DMSO added to each well) and cell-free medium control wells (containing 50 µL of the complete medium with 2% FBS) were also set. The culture plate was incubated in an incubator at 37 °C with 5% CO2 for another 5 days, and then 30 µL of CellTiter-Glo working solution was added to each well. The mixture was well mixed, incubated for 30 min, left to stand at room temperature for 30 min, and then transferred to a white-bottomed, opaque 384-well assay plate at 40 µL/well. […] Using an XLfit software, the IR (%) values were plotted against the logarithm of the compound concentrations, and the dose-response curves were fitted using the four-parameter method to calculate the IC50 values.

AsPC-1 cells = assay: 3D cell proliferation assay (CellTiter Glo-3D), AsPC-1; format: cell-based, human; settings: AsPC-1 cells (KRAS G12D), 3D, 2% FBS, 5 days, read-out: AsPC-1 AP IC50
Experimental: as §1

AsPC-1 p-ERK = assay: Cell p-ERK assay (HTRF), AsPC-1 cells; format: cell-based, human; settings: AsPC-1 cells (KRAS G12D), 3 h incubation, read-out: AsPC-1 p-ERK IC50
Outline: (§2)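 AsPC-1 (10000/well) or NCI-H441 (20000/well) cells were seeded overnight and then exposed to compound for 3 h at 37 °C. Lysates were probed for ERK phospho-T202/Y204 by HTRF with a 4-hour antibody incubation. IC50 values came from four-parameter fits of inhibition against log concentration.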

H441 p-ERK = assay: Cell p-ERK assay (HTRF), NCI-H441 cells; format: cell-based, human; settings: NCI-H441 cells (KRAS G12V), 3 h incubation
Outline: as §2

Compound | pIC50 (NCI-H441 cells; Homo sapiens, 120 h) | pIC50 (AsPC-1 cells; Homo sapiens, ASPC1, 120 h) | IC50 (KRAS G12V-cRAF) | IC50 (KRAS WT-cRAF) | pIC50 (AsPC-1 p-ERK; Homo sapiens, ASPC1) | pIC50 (H441 p-ERK; Homo sapiens) | further results
CCn1c(-c2cc(C#CCN3CCC(C#N)(CO)CC3)cnc2[C@H](C)OC)c2c3cc(ccc31)-c1csc(n1)C[C@H](NC(=O)[C@H]1[C@@H]3COC[C@@H]31)C(=O)N1CCC[C@H](N1)C(=O)OCC(C)(C)C2 (atropisomer, axis not shown) [Compound Z39] | – | – | – | – | – | – | pIC50 (KRAS G12V-cRAF): 8.04; pIC50 (KRAS WT-cRAF): 7.66
CCn1c(-c2cc(C#CCN3CCS(=O)(=O)CC3)cnc2C(C)OC)c2c3cc(ccc31)-c1csc(n1)CC(NC(=O)C1C(C)C1C(=O)NCCO)C(=O)N1CCCC(N1)C(=O)OCC(C)(C)C2 (atropisomer, axis not shown; (Ra)) [Compound Z13-1, (1R,2R,3S)-N^1-((6^3S,4S,Z)-(Ra)-1^2-(5-(3-(1,1-dioxidothiomorpholino)prop-1-yn-1-yl)-2-((S)-1-methoxyethyl)pyridin-3-yl)-1^1-ethyl-10,10-dimethyl-5,7-dioxo-6^1,6^2,6^3,6^4,6^5,6^6-hexahydro-1^1H-8-oxa-2(4,2)-thiazola-1(5,3)-indola-6(1,3)-pyridazinacycloundecaphane-4-yl)-N^2-(2-hydroxyethyl)-3-methylcyclopropane-1,2-dicarboxamide] | 8.47 | 8.43 | 5.2 nM | 21.8 nM | – | – | –
CCn1c(-c2cc(C#CCN3CCS(=O)(=O)CC3)cnc2C(C)OC)c2c3cc(ccc31)-c1csc(n1)CC(NC(=O)C1C(C)C1C(=O)NCCO)C(=O)N1CCCC(N1)C(=O)OCC(C)(C)C2 (atropisomer, axis not shown; (Ra)) [Compound Z13-2, (1S,2S,3R)-N^1-((6^3S,4S,Z)-(Ra)-1^2-(5-(3-(1,1-dioxidothiomorpholino)prop-1-yn-1-yl)-2-((S)-1-methoxyethyl)pyridin-3-yl)-1^1-ethyl-10,10-dimethyl-5,7-dioxo-6^1,6^2,6^3,6^4,6^5,6^6-hexahydro-1^1H-8-oxa-2(4,2)-thiazola-1(5,3)-indola-6(1,3)-pyridazinacycloundecaphane-4-yl)-N^2-(2-hydroxyethyl)-3-methylcyclopropane-1,2-dicarboxamide] | – | – | 5.1 nM | 22.6 nM | – | – | –
COCCn1c(-c2cc(C#CCN3CCN(C(=O)CO)CC3)cnc2C(C)OC)c2c3cc(ccc31)-c1csc(n1)CC(NC(=O)C1C3COCC31)C(=O)N1CCCC(N1)C(=O)OCC(C)(C)C2 (atropisomer, axis not shown; (Ra)) [Compound Z31-1, (1R,5S,6r)-N-((6^3S,4S,Z)-(Ra)-1^2-(5-(3-(4-(2-hydroxyacetyl)piperazin-1-yl)prop-1-yn-1-yl)-2-((S)-1-methoxyethyl)pyridin-3-yl)-1^1-(methoxyethyl)-10,10-dimethyl-5,7-dioxo-6^1,6^2,6^3,6^4,6^5,6^6-hexahydro-1^1H-8-oxa-2(4,2)-thiazola-1(5,3)-indola-6(1,3)-pyridazinacycloundecaphane-4-yl)-3-oxabicyclo[3.1.0]hexane-6-carboxamide] | 8.97 | 8.68 | 14.7 nM | 75 nM | 8.58 | 9.04 | –
CCn1c(-c2cc(C#CCN3CCC(C#N)CC3)cnc2[C@H](C)NC)c2c3cc(ccc31)-c1csc(n1)C[C@H](NC(=O)[C@H]1[C@@H]3COC[C@@H]31)C(=O)N1CCC[C@H](N1)C(=O)OCC(C)(C)C2 (atropisomer, axis not shown; (Ra)) [Compound Z169-1, (1R,5S,6r)-N-((6^3S,4S,Z)-(Ra)-1^2-(5-(3-(4-cyanopiperidin-1-yl)prop-1-yn-1-yl)-2-((S)-1-(methylamino)ethyl)pyridin-3-yl)-1^1-ethyl-10,10-dimethyl-5,7-dioxo-6^1,6^2,6^3,6^4,6^5,6^6-hexahydro-1^1H-8-oxa-2(4,2)-thiazola-1(5,3)-indola-6(1,3)-pyridazinacycloundecaphane-4-yl)-3-oxabicyclo[3.1.0]hexane-6-carboxamide] | – | – | – | – | – | – | pIC50 (KRAS G12V-cRAF): 7.76; pIC50 (KRAS WT-cRAF): 7.23
(6^3S,4S,Z)-(Sa)-1^2-(5-(3-(1,4-oxazepan-4-yl)prop-1-yn-1-yl)-2-((S)-1-methoxyethyl)pyridin-3-yl)-1^1-ethyl-10,10-dimethyl-4-((5-ethyl-5-methyl-4,5-dihydroisoxazol-3-yl)amino)-6^1,6^2,6^3,6^4,6^5,6^6-hexahydro-1^1H-8-oxa-2(4,2)-thiazola-1(5,3)-indola-6(1,3)-pyridazinacycloundecaphane-5,7-dione [Compound Z173-2] | – | – | – | – | – | – | pIC50 (NCI-H441 cells): 8.74; pIC50 (AsPC-1 p-ERK): 9.07; pIC50 (AsPC-1 cells): 8.79; pIC50 (H441 p-ERK): 9.09

The next lines start with results.

pIC50 (NCI-H441 cells; Homo sapiens, 120 h) | pIC50 (AsPC-1 cells; Homo sapiens, ASPC1, 120 h) | IC50 (KRAS G12V-cRAF) | IC50 (KRAS WT-cRAF) | pIC50 (AsPC-1 p-ERK; Homo sapiens, ASPC1) | pIC50 (H441 p-ERK; Homo sapiens) | Compound | further results
8.64 | 8.08 | 18.6 nM | 47.5 nM | 8.81 | 8.96 | CCn1c(-c2cc(C#CCN3CCS(=O)(=O)CC3)cnc2C(C)OC)c2c3cc(ccc31)-c1cc(N)cc(c1)CC(NC(=O)C1C(C)C1C)C(=O)N1CCCC(N1)C(=O)OCC(C)(C)C2 (atropisomer, axis not shown; (Ra)) [Compound Z22, (1r,2R,3S)-N-((6^3S,4S)-2^5-amino-(Ra)-1^2-(5-(3-(1,1-dioxidothiomorpholino)prop-1-yn-1-yl)-2-((S)-1-methoxyethyl)pyridin-3-yl)-1^1-ethyl-10,10-dimethyl-5,7-dioxo-6^1,6^2,6^3,6^4,6^5,6^6-hexahydro-1^1H-8-oxa-1(5,3)-indola-6(1,3)-pyridazina-2(1,3)-benzenacycloundecaphane-4-yl)-2,3-dimethylcyclopropane-1-carboxamide] | –
– | – | 8.29 nM | 18.7 nM | – | – | CCn1c(-c2cc(C#CCN3CCC(C#N)CC3)cnc2C(C)OC)c2c3cc(ccc31)-c1coc(n1)CC(NC(=O)C1C(C)C1C)C(=O)N1CCCC(N1)C(=O)OCC(C)(C)C2 (atropisomer, axis not shown; (Ra)) [Compound Z155, (1r,2R,3S)-N-((6^3S,4S,Z)-(Ra)^2-(5-(3-(4-cyanopiperidin-1-yl)prop-1-yn-1-yl)-2-((S)-1-methoxyethyl)pyridin-3-yl)-1^1-ethyl-10,10-dimethyl-5,7-dioxo-6^1,6^2,6^3,6^4,6^5,6^6-hexahydro-1^1H-8-oxa-2(4,2)-oxazola-1(5,3)-indola-6(1,3)-pyridazinacycloundecaphan-4-yl)-2,3-dimethylcyclopropanecarboxamide] | –
– | – | 7.75 nM | 16.4 nM | 10.52 | 10.05 | CCn1c(-c2cc(C#CCN3CCC(C#N)CC3)cnc2C(C)OC)c2c3cc(ccc31)-c1coc(n1)CC(NC(=O)C1C3COCC31)C(=O)N1CCCC(N1)C(=O)OCC(C)(C)C2 (atropisomer, axis not shown; (Ra)) [Compound Z168, (1R,5S,6r)-N-((6^3S,4S,Z)-(Ra)-1^2-(5-(3-(4-cyanopiperidin-1-yl)prop-1-yn-1-yl)-2-((S)-1-methoxyethyl)-pyridin-3-yl)-1^1-ethyl-10,10-dimethyl-5,7-dioxo-6^1,6^2,6^3,6^4,6^5,6^6-hexahydro-1^1H-8-oxa-2(4,2)-oxazola-1(5,3)-indola-6(1,3)-pyridazinacycloundecaphane-4-yl)-3-oxabicyclo[3.1.0]hexane-6-carboxamide] | –
